Laboratory results: patent US20030139296A1 (priority 2000, published 2003)
Where a name gives a salt, the structure may show the parent alone. Read-outs that look alike come from different tables or passages of the source.

Key:
Magnaporthe grisea KJ201 [1] = assay type: in vivo; conditions: rice blast; for Degree of the disease severity: 1 week after inoculation, scale 0~10; for Control value(%): versus Tween 80-treated rice
[2] = tested on: PR1, PBZ1 and POX22.3 defense genes; conditions: FIG. 1
[3] = tested on: PR1, PBZ1 and POX22.3 defense genes; conditions: in vivo
[4] = tested on: PR1, PBZ1 and POX22.3 defense genes
[5] = tested on: PAL, APX and HMGR defense genes; conditions: tomato stem soaked in aqueous solution at 50 u uM; FIG. 4
[6] = tested on: Xanthomonas oryzae pv. oryzae KX021; conditions: bacterial leaf blight in rice; for Degree of the disease severity: distance from inoculated points to symptoms; for Control value(%): versus Tween 80-treated rice, HCl
Magnaporthe grisea KJ201 [7] = conditions: rice blast; for Degree of the disease severity: 28° C., 1 day, inoculated at fourth-leaf stage, scale 0~10; for Control value(%): versus distilled water-treated rice, HCl
defense genes in plants = conditions: compared among vitamin B1, vitamin B6 and vitamin C
[8] = 20 mM + Tween 80 (250 ppm) spray
[9] = 50 mM + Tween 80 (250 ppm) spray

Compound: Cc1ncc(C[n+]2csc(CCO)c2C)c(N)n1 [Vitamin B1 HCl, thiamine HCl]
- Degree of the disease severity (Magnaporthe grisea KJ201 [1]; 5 mM + Tween 80 (250 ppm) spray, inoculated 4 hours after treatment): 6.5 ± 0.6
- Control value(%) (Magnaporthe grisea KJ201 [1]; 5 mM + Tween 80 (250 ppm) spray, HCl): 21.2 ± 7.2%
- Control value(%) (Magnaporthe grisea KJ201 [1]; 5 mM + Tween 80 (250 ppm) spray, listed as vitamin B1 hydrochloride, HCl): not more than 30%
- Degree of the disease severity (Magnaporthe grisea KJ201 [1]; 10 mM + Tween 80 (250 ppm) spray): 5.8 ± 1.5
- Control value(%) (Magnaporthe grisea KJ201 [1]; 10 mM + Tween 80 (250 ppm) spray, HCl): 30.3 ± 18.2%
- Control value(%) (Magnaporthe grisea KJ201 [1]; 10 mM + Tween 80 (250 ppm) spray, listed as vitamin B1 hydrochloride, HCl): not more than 30%
- Degree of the disease severity (Magnaporthe grisea KJ201 [1]; [8]): 2.3 ± 1.4
- Control value(%) (Magnaporthe grisea KJ201 [1]; [8]): 72.7 ± 17.0%
- Degree of the disease severity (Magnaporthe grisea KJ201 [1]; [9]): 2.8 ± 1.5
- Control value(%) (Magnaporthe grisea KJ201 [1]; [9]): 66.7 ± 18.2%
- Degree of the disease severity (Magnaporthe grisea KJ201 [1]; 100 mM + Tween 80 (250 ppm) spray): 1.1 ± 0.8
- Control value(%) (Magnaporthe grisea KJ201 [1]; 100 mM + Tween 80 (250 ppm) spray, HCl): 87.3 ± 9.7%
- Control value(%) (Magnaporthe grisea KJ201 [1]; 100 mM + Tween 80 (250 ppm) spray, listed as vitamin B1 hydrochloride, HCl): about 87%
- Expression of defense genes compared to groups A and B ([2]; rice treated with 50 mM and then inoculated with rice blast fungus (group C)): considerably increased
- Time at which expression of defense genes was detected ([2]; rice treated with 50 mM only (group B)): 24 h
- Time after inoculation at which expression of all three defense genes was detected ([2]; rice treated with 50 mM, inoculated with rice blast fungus 24 hours later (group C)): 24 h
- Time after treatment at which all defense genes tested were induced to express [3]: 4 h
- Time after inoculation at which expression of all three defense genes was detected ([4]; in vivo): 24 h
- Time after treatment at which expression of defense genes was detected ([4]; in vivo): 24 h
- Expression of defense genes compared to groups A and B ([4]; rice treated with 50 mM and then inoculated with leaf blight bacteria (group C), FIG. 3): considerably increased
- Time by which all the defense genes were expressed [5]: ≤ 1 h
- Degree of the disease severity ([6]; 5 mM + Tween 80 (250 ppm) spray, 1 week after inoculation): 8.7 ± 0.6
- Control value(%) ([6]; 5 mM + Tween 80 (250 ppm)): 10.3 ± 6.2%
- Control value(%) ([6]; 5 mM + Tween 80 (250 ppm), listed as vitamin B1 hydrochloride): about 30%
- Degree of the disease severity ([6]; 10 mM + Tween 80 (250 ppm) spray, 1 week): 4.2 ± 1.4
- Control value(%) ([6]; 10 mM + Tween 80 (250 ppm)): 56.3 ± 14.4%
- Control value(%) ([6]; 10 mM + Tween 80 (250 ppm), listed as vitamin B1 hydrochloride): not less than 56%
- Control value(%) ([6]; 20 mM + Tween 80 (250 ppm)): 68.3 ± 25.9%
- Control value(%) ([6]; 20 mM + Tween 80 (250 ppm), listed as vitamin B1 hydrochloride): ≥ 68%
- Degree of the disease severity ([6]; 50 mM + Tween 80 (250 ppm) spray, 1 week): 0.2 ± 0.3
- Control value(%) ([6]; 50 mM + Tween 80 (250 ppm)): 97.6 ± 3.1%
- Control value(%) ([6]; 50 mM + Tween 80 (250 ppm), listed as vitamin B1 hydrochloride): ≥ 97%
- Degree of the disease severity ([6]; 100 mM + Tween 80 (250 ppm) spray, 1 week): 0.3 ± 0.1
- Control value(%) ([6]; 100 mM + Tween 80 (250 ppm)): 97.2 ± 1.0%
- Control value(%) ([6]; 100 mM + Tween 80 (250 ppm), listed as vitamin B1 hydrochloride): ≥ 97%
- Degree of the disease severity (Magnaporthe grisea KJ201 [7]; seeds soaked at 20 mM): 5.4 ± 3.2
- Control value(%) (Magnaporthe grisea KJ201 [7]; seeds soaked at 20 mM): 44.4 ± 32.8%
- Control value(%) (Magnaporthe grisea KJ201 [7]; seeds soaked at 20 mM, listed as vitamin B1 hydrochloride): 44%
- Degree of the disease severity (Magnaporthe grisea KJ201 [7]; seeds soaked at 50 mM): 2.3 ± 1.9
- Control value(%) (Magnaporthe grisea KJ201 [7]; seeds soaked at 50 mM): 76.8 ± 19.5%
- Control value(%) (Magnaporthe grisea KJ201 [7]; seeds soaked at 50 mM, listed as vitamin B1 hydrochloride): 77%

Compound: Cc1ncc(C[n+]2csc(CCO)c2C)c(N)n1 [vitamin B1]
- Effectiveness for inducing the expression of defense genes in plants (defense genes in plants): the most effective
